This note sets out measurements from DBAASP.

Values after ≈ are worked out from the molar mass of the structure shown.

What all share (assay): ≥ marks a high value that may be exact or a test limit, other limits are often not marked, values filed in µg/mL are converted to µM
Assay [1] has as its system Corynebacterium glutamicum ATCC 13032.
The subject of assay [2] is Escherichia coli ATCC 25922.
In another assay the test system is Escherichia coli HB101.
Assay [3] has as its system Pseudomonas aeruginosa ATCC 27853.
The subject of assay [4] is Staphylococcus aureus ATCC 9144.
Assay [5] concerns Pseudomonas aeruginosa 253.
For assay [6], the system named is Pseudomonas aeruginosa 910.
The subject of assay [7] is Pseudomonas aeruginosa 919.
Assay [8] concerns Pseudomonas aeruginosa PAO1.
Assay [9] relates to Candida albicans ATCC 37092.
For assay [10], the system named is Staphylococcus aureus ATCC 29213.

In the case of `CC[C@H](C)[C@H](NC(=O)[C@@H]1CCCN1C(=O)[C@H](CCCCN)NC(=O)[C@@H]1CCCN1C(=O)[C@H](CCCN=C(N)N)NC(=O)CNC(=O)[C@@H]1CCCN1C(=O)[C@H](Cc1ccccc1)NC(=O)[C@@H]1CCCN1C(=O)[C@H](CCCN=C(N)N)NC(=O)[C@@H]1CCCN1C(=O)[C@H](CCCN=C(N)N)NC(=O)CNC(=O)[C@@H]1CCCN1C(=O)[C@H](CO)NC(=O)[C@@H]1CCCN1C(=O)[C@H](Cc1c[nH]c2ccccc12)NC(=O)[C@H](CCCN=C(N)N)NC(=O)[C@@H](N)CO)C(=O)N[C@@H](Cc1ccccc1)C(=O)O` [SRWPSPGRPRPFPGRPKPIF], the minimal inhibitory concentration (MIC) (as a rule, the least concentration at which growth counts as inhibited) is 17.7 µM (≈ 41.2 µg/mL) in assay [1]; greater than 100 µM in assay [2]; no less than 35.4 µM in the assay on Escherichia coli HB101; greater than 100 µM in [3]; no less than 100 µM in assay [4].

Consider `CC[C@H](C)[C@H](N)C(=O)N[C@@H](CC(C)C)C(=O)N[C@@H](CCCCN)C(=O)N[C@@H](Cc1c[nH]c2ccccc12)C(=O)N[C@@H](CCCCN)C(=O)N[C@@H](CCSC)C(=O)N[C@@H](Cc1ccccc1)C(=O)N[C@@H](CCCCN)C(=O)N[C@@H](Cc1c[nH]c2ccccc12)C(=O)N[C@@H](CCCCN)C(=O)N[C@@H](Cc1c[nH]c2ccccc12)C(=O)N[C@@H](Cc1ccccc1)C(=O)N[C@@H](CCCN=C(N)N)C(N)=O` [ILKWKMFKWKWFR], for which the minimum inhibitory concentration (MIC) was found to be 16 µM (≈ 30.3 µg/mL) in assay [5], 4 µM (≈ 7.59 µg/mL) in assay [6], 16 µM (≈ 30.3 µg/mL) in assay [7] and 2 µM (≈ 3.79 µg/mL) in [8].

With `CC[C@H](C)[C@H](NC(=O)[C@@H](NC(=O)[C@H](CCCN=C(N)N)NC(=O)[C@H](Cc1c[nH]c2ccccc12)NC(=O)[C@H](CCCN=C(N)N)NC(=O)[C@@H](N)CCCN=C(N)N)C(C)C)C(=O)N[C@H](C(=O)N[C@@H](CCCCN)C(=O)N[C@@H](Cc1c[nH]c2ccccc12)C(N)=O)C(C)C` [RRWRVIVKW], the minimal inhibitory concentration (MIC) turned out to be 8 µM (≈ 10.4 µg/mL) in [5], 4 µM (≈ 5.19 µg/mL) in assay [6], 4 µM (≈ 5.19 µg/mL) in assay [7] and 4 µM (≈ 5.19 µg/mL) in [8].

For `CC(C)C[C@H](NC(=O)[C@H](CCCN=C(N)N)NC(=O)[C@@H]1CCCN1C(=O)[C@@H]1CCCN1C(=O)[C@H](CCCN=C(N)N)NC(=O)[C@@H]1CCCN1)C(=O)N1CCC[C@H]1C(=O)N[C@@H](CCCN=C(N)N)C(=O)N1CCC[C@H]1C(=O)N[C@@H](CCCN=C(N)N)C(=O)N1CCC[C@H]1C(=O)N[C@@H](CCCN=C(N)N)C(=O)N1CCC[C@H]1C(=O)N[C@@H](CC(C)C)C(=O)N1CCC[C@H]1C(=O)N[C@@H](Cc1ccccc1)C(=O)N1CCC[C@H]1C(=O)N[C@@H](CCCN=C(N)N)C(=O)N1CCC[C@H]1C(=O)NCC(=O)O` [PRPPRLPRPRPRPLPFPRPG], the MIC in assay [9] is 17.6 µM (≈ 41.5 µg/mL); in assay [2] it was 18.1 µM (≈ 42.7 µg/mL); in assay [10], greater than 500 µM.
